Data on four compounds can be found in US10117848B2, “Highly water-soluble salts of a short acting phenylalkylamine calcium channel blocker and uses thereof” (Milestone Pharmaceuticals Inc., priority 2015, dated 2018).

The nature of series [1]: Solubility in aqueous solution. The note with it: acid addition salts of compound I. Format: physicochemical.
Series [2] concerns patients suffering from an episode of PSVT. Briefly: Nasal administration of acetate salt solutions to patients in a PSVT episode, monitored by electrocardiography. Format: in vivo, human. The text has this:
A common method of measuring the effectiveness of a therapeutic agent in terminating an episode of a cardiac arrhythmia, such as PSVT, is by analysis of an electrocardiogram (ECG) recorded from a patient experiencing such an episode. […] One of the key features of healthy cardiac signaling is a temporal delay between the initiation of atrial and ventricular action potentials. A delay between signaling in the atria and ventricles is necessary for efficient pumping of blood. Signaling in the atria must proceed first, such that all blood in the atrial chambers is expelled into the ventricles before the ventricles contract. […]
It has been shown that an increase of at least 10% in the PR segment of an […] recorded from a patient suffering from a cardiac arrhythmia correlates well with a termination of the PSVT episode. […] The solutions that were administered to patients contained varying concentrations of the acetate salt of compound I. During the study, a solution containing a particular concentration of the acetate salt of compound I was administered to a patient experiencing an episode of PSVT, and the patient was monitored by electrocardiography throughout the duration of the experiment. […]

The next series deals with nasal epithelium. Briefly: Permeation through the nasal epithelium with EDTA. The note with it: use of EDTA in the formulation. The text has this: The nasal vestibule, which accounts for approximately 3-4% of the surface area of the nasal cavity, lacks tight junctions altogether and is thus not affected by calcium chelating agents. […] As such, it has been postulated that the nasal epithelium is not susceptible to permeability modulation by EDTA (Aungst, et al., Pharma. Res., 1998, 5:305-308). Additionally, the ability of EDTA to increase permeation of a compound through the nasal epithelium is attenuated as the molecular weight of the compound increases (Nakanishi, et al., Chem. Pharm. Bull., 1984, 32:1628-1632).

Series [3] is described as follows: Homogeneity (no observable precipitation) of concentrated aqueous solutions on storage. Type of series: physicochemical.
The test system of series [4] is patients treated for an episode of PSVT. The note with it: intravenous; cited from earlier work.
The test system of series [5] is patients suffering from an episode of PSVT. The note with it: therapeutic dose, intravenous; cited from earlier work.
[6] abbreviates: 300 mg/mL, 1 eq methanesulfonic acid, 10 mM sodium acetate, 5 mM disodium EDTA, pH 4.5.
Setting [7] is: 350 mg/mL, 1 eq acetic acid, pH 4.5 with 3.6 M sulfuric acid.
The mark [8] stands for this setting: 400 mg/mL, 1 eq methanesulfonic acid, 10 mM sodium acetate, 5 mM disodium EDTA, pH 4.5.

`CC(=O)O.COC(=O)c1cccc(CCN(C)CCC[C@@](C#N)(c2ccc(OC)c(OC)c2)C(C)C)c1` [acetate salt of compound I]: in series [1], the “solubility in aqueous solution” value was “high solubility”. The “median PR prolongation” value in series [2] (solutions containing 60 mg or greater of compound I, patients experiencing a PSVT episode, ECG) was “greater than 10%”.
Consider `COC(=O)c1cccc(CCN(C)CCCC(C#N)(c2ccc(OC)c(OC)c2)C(C)C)c1` (stereo not shown) [compound I, methyl 3-(2-((4-cyano-4-(3,4-dimethoxyphenyl)-5-methylhexyl)(methyl)amino)ethyl)benzoate], for which the “permeation through the nasal epithelium” value with nasal epithelium is “increased the permeation”. Also, in series [2] (dosage containing 60 mg of compound I), the “effectiveness in terminating an episode of PSVT” value is given as “therapeutically effective”. For the same compound, the “homogeneity at 2-5° C.” value in series [3] (setting [6]) and in series [3] (setting [8]) was “remains homogeneous” in each case. Also, the “homogeneity at room temperature” value in series [3] (setting [6]) is “remains homogeneous”; in series [3] (setting [7]) it was “remains homogeneous”; in series [3] (setting [8]) it was “remains homogeneous”; in series [3] (highly concentrated solutions, 0.5-1.5 molar equivalents of acetic acid or methanesulfonic acid), “remain homogeneous”; in series [3] (over 500 mg/mL, 1 eq acetic acid, pH 4.5 with 3.6 M sulfuric acid), “remains homogeneous”. For the same compound, the “time solution remains homogeneous at 0° C.” value in series [3] (setting [6]) and in series [3] (setting [8]) was “at least 7 days” in each case. The “time solution remains homogeneous at 10° C.” value in series [3] (setting [7]) is “at least 3 days”.
In the case of `OC[C@H]1O[C@@H](n2cnc3c(N[C@@H]4CCOC4)ncnc32)[C@H](O)[C@@H]1O` [tecadenoson], in series [4], the “average PR prolongation” value is listed as 8.5%, the “efficacy of PSVT termination” value is “approximately 86%” and the “patients treated who experienced relief from an episode of PSVT” value is recorded as 32 out of 37.
`COc1ccc(CCN(C)CCCC(C#N)(c2ccc(OC)c(OC)c2)C(C)C)cc1OC` (stereo not shown) [verapamil, 2-(3,4-dimethoxyphenyl)-5-[2-(3,4-dimethoxyphenyl)ethyl-methylamino]-2-propan-2-ylpentanenitrile]: in series [5], the PR prolongation result is recorded as “at least 10%” and the “efficacy for terminating the PSVT episode” value was 85-90%.
